# Assay results: ChEMBL document CHEMBL1201862, “PubChem BioAssay data set” (2004)
# Calls of active or inactive are those of the source.
# Experiments:
# [1] = human group III sPLA2 inhibitors, dose response, biochemical, QFRET, IC50 (AID 743457);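 note: green fluorescence rise as the enzyme cleaves BODIPY PC-A2 in liposomes; potency for inhibition of the enzyme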
# [2] = HepG2 cell cytotoxicity, dose response, cytotoxicity control, ATP luminescence, cherry-pick, activator set 2 (AID 1053143); type: functional, cell-based
# [3] = target: T1, Small ubiquitin-related modifier 1 (Homo sapiens, UniProt P63165); assay: inhibitors of SUMO1 peptide binding, dose response, biochemical, fluorescence polarization, uHTS hits (AID 624382); type: functional; conditions: read-out: IC50_Mean
# [4] = target: T1, Small ubiquitin-related modifier 1; assay: inhibitors of SUMO1 partner interactions, dose response, biochemical, FRET (AID 624383); type: functional; conditions: read-out: IC50_Mean
# [5] = target: SWI/SNF-related matrix-associated actin-dependent regulator of chromatin subfamily A member 2 (Homo sapiens, UniProt P51531); assay: Luminescence-based cell-based high throughput dose response assay to identify activators of the function of SWI/SNF related, matrix associated, actin dependent regulator of chromatin, subfamily a, member 2 (SMARCA2, BRM).; type: functional
# [6] = HEp-2 cell cytotoxicity, dose response, cytotoxicity control for RSV inhibitor project, HTS (AID 2410); type: functional; conditions: human respiratory syncytial virus
# [7] = Counterscreen for activators of the function of SWI/SNF related, matrix associated, actin dependent regulator of chromatin, subfamily a, member 2 (SMARCA2, BRM): Luminescence-based cell-based high throughput dose response assay to identify non-selective compounds using the VP16 reporter assay.; type: functional
# [8] = cytotoxicity in HEK-293T cells, dose response, cytotoxicity control for TCR NF-kB inhibitor project, luminescence, T-cell screen hits (AID 489026); type: functional, cell-based;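 note: cells exposed to compound about 14 hours before the viability readout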
# [9] = target: Photoreceptor-specific nuclear receptor (Homo sapiens, UniProt Q9Y5X4); assay: NR2E3 inverse agonists, dose response, biochemical, TR-FRET (AID 463256); type: functional
# [10] = target: Peroxisome proliferator-activated receptor gamma/Nuclear receptor corepressor 2 (Homo sapiens, UniProt P37231+Q9Y618); assay: Counterscreen for NR2E3 inverse agonists: TR-FRET-based biochemical high throughput dose response assay to identify inverse agonists of the interaction between peroxisome proliferator-activated receptor gamma (PPARg) and nuclear receptor co-repressor 2 (NCOR2).; type: functional
# Fatty acid synthase = Fatty acid synthase (Homo sapiens, UniProt P49327); assay: FAS thioesterase domain inhibitors, dose response, biochemical, kinetic fluorescence intensity (AID 624326); type: functional;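 note: rate of fluorescence rise from hydrolysis of a fluorogenic O-methyl fluorescein ester substrate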
# [11] = target: Disintegrin and metalloproteinase domain-containing protein 17 (Homo sapiens, UniProt P78536); assay: exosite inhibitors of ADAM17, dose response, biochemical (AID 743260)
# [12] = ADAM10 protease inhibitors, dose response, selectivity assay for ADAM17 exosite inhibitor project, biochemical, FRET peptide substrate, recombinant human ADAM10 (AID 743259);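 note: ADAM10 enzyme cleaving a FRET peptide substrate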
# [13] = target: T2, Methionyl-tRNA synthetase, putative (Trypanosoma brucei brucei, UniProt Q38C91); type: functional, Trypanosoma brucei brucei strain 927/4 GUTat10.1
# T2 sequence (Q38C91 whole entry): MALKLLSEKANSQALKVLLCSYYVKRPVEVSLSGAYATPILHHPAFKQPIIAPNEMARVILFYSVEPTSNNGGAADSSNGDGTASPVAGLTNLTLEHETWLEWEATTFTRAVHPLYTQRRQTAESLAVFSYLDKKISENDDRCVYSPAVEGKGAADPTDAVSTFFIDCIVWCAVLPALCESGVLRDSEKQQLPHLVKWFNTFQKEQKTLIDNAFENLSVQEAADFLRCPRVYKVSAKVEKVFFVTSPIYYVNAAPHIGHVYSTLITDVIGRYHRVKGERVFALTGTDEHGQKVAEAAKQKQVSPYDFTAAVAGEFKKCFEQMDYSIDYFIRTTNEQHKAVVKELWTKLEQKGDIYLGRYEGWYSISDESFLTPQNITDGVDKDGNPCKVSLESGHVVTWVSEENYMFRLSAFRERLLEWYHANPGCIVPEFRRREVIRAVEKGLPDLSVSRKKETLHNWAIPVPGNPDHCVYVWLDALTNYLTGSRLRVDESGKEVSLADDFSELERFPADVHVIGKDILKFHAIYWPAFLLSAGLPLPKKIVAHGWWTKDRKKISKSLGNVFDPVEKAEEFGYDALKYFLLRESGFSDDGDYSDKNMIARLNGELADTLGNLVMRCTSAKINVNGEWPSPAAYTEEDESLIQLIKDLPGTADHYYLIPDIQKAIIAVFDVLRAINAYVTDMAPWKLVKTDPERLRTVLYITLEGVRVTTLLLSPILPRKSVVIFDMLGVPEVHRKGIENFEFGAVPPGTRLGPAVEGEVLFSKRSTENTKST
# [14] = Counterscreen for inhibitors of Trypanosoma brucei methionyl tRNA synthetase (MetRS): Luminescence-based cell-based high throughput dose response assay to identify compounds that are cytotoxic to Jurkat human T lymphocyte cells.; type: functional
# [15] = target: T2, Methionyl-tRNA synthetase, putative; type: functional, Trypanosoma brucei brucei strain 927/4 GUTat10.1; remark: listed apart in the source
# [16] = microbe, parasite or virus in culture; type: functional; conditions: Mycobacterium tuberculosis
# cells = type: functional
# [17] = target: T3, Probable nicotinate-nucleotide adenylyltransferase (Staphylococcus aureus (strain N315), UniProt P65502); type: functional, Staphylococcus aureus subsp. aureus N315;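 for IC50 Mean: confirmatory dose-response retesting of NadD inhibitor hits first found in an ultra-high-throughput screen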
# [18] = target: T3, Probable nicotinate-nucleotide adenylyltransferase; type: functional, Staphylococcus aureus subsp. aureus N315; conditions: read-out: IC50_Mean
# Aminopeptidase N = target: T4, Aminopeptidase N (Plasmodium falciparum FcB1/Columbia, UniProt O96935); assay: P. falciparum M1AAP inhibitors, biochemical, fluorogenic H-Leu-NHMec substrate, 1536-well (AID 1445); set-up: species or system Plasmodium falciparum 3D7, 3D7
# T4 sequence (O96935 whole entry): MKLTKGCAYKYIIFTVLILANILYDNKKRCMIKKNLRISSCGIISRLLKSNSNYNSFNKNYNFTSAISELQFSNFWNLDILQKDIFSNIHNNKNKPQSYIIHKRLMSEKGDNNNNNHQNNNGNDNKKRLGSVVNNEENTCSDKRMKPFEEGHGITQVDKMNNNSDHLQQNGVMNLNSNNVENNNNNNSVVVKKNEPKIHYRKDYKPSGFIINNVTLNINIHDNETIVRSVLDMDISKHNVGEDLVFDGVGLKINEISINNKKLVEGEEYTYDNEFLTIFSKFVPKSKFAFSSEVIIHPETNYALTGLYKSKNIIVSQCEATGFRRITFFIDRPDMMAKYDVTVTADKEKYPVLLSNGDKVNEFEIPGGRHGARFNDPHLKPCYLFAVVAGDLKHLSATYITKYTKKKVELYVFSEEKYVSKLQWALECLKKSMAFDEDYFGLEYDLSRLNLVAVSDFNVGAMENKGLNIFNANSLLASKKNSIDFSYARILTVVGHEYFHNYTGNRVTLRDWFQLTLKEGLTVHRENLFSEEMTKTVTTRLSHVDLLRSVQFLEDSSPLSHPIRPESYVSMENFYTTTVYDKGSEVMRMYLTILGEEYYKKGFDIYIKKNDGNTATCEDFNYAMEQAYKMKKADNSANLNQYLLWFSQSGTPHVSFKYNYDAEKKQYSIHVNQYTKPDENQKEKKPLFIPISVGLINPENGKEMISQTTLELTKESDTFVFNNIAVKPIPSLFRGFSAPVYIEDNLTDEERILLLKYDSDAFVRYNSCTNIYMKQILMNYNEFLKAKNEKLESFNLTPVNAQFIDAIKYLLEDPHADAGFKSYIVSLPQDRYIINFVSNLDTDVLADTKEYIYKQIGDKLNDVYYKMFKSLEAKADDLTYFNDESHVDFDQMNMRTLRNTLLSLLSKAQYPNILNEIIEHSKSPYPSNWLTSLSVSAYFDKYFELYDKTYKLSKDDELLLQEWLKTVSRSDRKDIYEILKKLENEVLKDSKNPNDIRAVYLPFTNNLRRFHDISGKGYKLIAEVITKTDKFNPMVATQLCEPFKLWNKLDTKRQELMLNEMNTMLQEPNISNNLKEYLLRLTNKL
# [19] = test system: Streptococcus sp. 'group A'; assay: growth inhibition of control SK(-) GAS strain, dose response, counter-screen for streptokinase expression inhibitor project, luminescence, kanamycin, BacTiterGlo, confirmation (AID 1900); type: functional, organism-based
# Streptococcus = assay: Group A Streptococcus viability loss, dose response, counter-screen for streptokinase expression inhibitor project, luminescence, BacTiterGlo (AID 1915); type: functional, organism-based;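 note: potency for reduction of bacterial viability or growth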
# [20] = target: ADP-ribosylation factor GTPase-activating protein 1 (Rattus norvegicus, UniProt Q62848); assay: Fluorescence polarization-based biochemical high throughput dose response screening assay to identify inhibitors of ADP-ribosylation factor GTPase activating protein 1 (ARFGAP1).; type: functional
# [21] = target: 5-hydroxytryptamine receptor 2A (Mus musculus, UniProt P35363); type: functional, cell-based;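 note: CHO-K1 cells with tagged receptor and beta-arrestin; agonist potency measured as compound-induced activation of the receptor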
# 5-hydroxytryptamine receptor 2A, sequence (P35363 whole entry): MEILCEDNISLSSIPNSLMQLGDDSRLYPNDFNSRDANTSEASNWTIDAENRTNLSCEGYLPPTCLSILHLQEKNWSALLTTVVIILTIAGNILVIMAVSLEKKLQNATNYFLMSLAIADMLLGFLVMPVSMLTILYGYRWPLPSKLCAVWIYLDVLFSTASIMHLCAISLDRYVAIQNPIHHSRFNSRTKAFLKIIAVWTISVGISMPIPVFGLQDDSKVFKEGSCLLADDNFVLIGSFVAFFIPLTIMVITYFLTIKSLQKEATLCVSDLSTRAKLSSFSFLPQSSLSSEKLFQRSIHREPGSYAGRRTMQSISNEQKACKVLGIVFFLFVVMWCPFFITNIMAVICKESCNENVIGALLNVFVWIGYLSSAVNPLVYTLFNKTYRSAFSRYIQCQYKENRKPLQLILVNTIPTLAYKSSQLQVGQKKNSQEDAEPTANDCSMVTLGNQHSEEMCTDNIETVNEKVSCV
# T3 sequence (P65502 whole entry): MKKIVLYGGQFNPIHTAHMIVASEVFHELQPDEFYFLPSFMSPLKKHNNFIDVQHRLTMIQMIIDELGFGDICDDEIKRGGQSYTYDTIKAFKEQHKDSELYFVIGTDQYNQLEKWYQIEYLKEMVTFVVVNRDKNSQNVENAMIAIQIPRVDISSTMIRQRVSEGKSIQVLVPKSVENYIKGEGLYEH
# T1 sequence (P63165 whole entry): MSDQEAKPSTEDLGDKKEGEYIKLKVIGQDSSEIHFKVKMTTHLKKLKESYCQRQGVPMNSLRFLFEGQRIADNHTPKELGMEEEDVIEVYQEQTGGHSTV
# SWI/SNF-related matrix-associated actin-dependent regulator of chromatin subfamily A member 2, sequence (P51531 whole entry): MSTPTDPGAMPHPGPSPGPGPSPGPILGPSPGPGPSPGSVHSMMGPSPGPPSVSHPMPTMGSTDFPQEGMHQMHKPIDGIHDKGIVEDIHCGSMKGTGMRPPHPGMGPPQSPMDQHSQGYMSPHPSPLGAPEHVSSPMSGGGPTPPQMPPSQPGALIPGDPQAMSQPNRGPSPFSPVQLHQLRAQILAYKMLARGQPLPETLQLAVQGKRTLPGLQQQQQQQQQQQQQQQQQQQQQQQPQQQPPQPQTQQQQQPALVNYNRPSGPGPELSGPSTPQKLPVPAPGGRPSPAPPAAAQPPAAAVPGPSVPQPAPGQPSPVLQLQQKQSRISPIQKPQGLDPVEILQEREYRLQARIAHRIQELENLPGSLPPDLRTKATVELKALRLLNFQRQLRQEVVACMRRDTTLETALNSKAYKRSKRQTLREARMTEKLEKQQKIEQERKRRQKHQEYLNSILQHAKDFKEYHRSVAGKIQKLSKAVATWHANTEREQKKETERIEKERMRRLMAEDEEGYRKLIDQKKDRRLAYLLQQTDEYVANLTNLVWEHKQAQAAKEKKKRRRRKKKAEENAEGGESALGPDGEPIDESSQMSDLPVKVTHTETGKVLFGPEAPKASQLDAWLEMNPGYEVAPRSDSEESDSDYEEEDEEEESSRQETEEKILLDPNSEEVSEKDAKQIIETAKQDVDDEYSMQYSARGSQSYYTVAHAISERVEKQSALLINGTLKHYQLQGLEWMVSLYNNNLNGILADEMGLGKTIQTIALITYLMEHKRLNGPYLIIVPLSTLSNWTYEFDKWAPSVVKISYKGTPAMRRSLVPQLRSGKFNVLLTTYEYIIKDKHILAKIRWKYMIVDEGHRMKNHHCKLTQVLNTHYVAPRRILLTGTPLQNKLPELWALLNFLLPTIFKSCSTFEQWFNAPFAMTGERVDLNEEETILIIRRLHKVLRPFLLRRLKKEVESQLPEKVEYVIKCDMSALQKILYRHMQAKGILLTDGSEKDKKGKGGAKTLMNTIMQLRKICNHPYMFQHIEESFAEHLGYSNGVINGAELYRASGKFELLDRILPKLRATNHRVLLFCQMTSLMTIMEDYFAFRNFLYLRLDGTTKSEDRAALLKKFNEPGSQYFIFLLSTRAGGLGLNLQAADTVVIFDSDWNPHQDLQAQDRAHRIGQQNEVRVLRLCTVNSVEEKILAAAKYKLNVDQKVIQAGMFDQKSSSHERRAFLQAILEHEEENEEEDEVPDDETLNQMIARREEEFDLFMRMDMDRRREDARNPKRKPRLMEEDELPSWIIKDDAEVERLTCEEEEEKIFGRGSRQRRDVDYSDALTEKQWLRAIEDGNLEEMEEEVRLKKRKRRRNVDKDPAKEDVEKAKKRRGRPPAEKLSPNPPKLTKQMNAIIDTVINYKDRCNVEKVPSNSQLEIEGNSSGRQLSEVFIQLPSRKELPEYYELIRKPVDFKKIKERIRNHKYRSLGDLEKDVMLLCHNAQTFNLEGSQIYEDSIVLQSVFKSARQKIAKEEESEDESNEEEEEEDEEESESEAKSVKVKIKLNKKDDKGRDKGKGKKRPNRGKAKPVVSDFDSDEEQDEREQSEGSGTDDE
# ADP-ribosylation factor GTPase-activating protein 1, sequence (Q62848 whole entry): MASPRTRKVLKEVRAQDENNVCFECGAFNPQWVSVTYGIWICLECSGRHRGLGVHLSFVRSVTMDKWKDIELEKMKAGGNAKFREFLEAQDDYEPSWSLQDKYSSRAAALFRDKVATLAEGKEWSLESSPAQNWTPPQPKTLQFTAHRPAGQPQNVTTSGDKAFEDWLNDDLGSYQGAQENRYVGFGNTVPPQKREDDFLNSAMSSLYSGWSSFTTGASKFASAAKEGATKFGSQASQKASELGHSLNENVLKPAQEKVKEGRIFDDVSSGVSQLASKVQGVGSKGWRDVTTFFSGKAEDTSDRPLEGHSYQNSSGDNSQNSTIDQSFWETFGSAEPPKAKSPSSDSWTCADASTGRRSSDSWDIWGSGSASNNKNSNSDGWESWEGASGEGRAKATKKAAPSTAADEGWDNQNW
# Photoreceptor-specific nuclear receptor, sequence (Q9Y5X4 whole entry): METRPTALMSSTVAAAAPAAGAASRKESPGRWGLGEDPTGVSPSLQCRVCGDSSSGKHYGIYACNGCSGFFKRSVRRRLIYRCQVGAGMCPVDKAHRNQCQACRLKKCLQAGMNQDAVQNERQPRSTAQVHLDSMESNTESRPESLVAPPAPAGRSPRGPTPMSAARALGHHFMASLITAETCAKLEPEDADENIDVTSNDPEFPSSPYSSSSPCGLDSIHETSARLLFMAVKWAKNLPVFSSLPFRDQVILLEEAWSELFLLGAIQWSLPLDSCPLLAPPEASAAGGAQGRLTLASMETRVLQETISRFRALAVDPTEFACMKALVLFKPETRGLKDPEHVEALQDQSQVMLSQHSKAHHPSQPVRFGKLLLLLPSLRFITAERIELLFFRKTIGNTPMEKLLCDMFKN
# Disintegrin and metalloproteinase domain-containing protein 17, sequence (P78536 whole entry, the tested form may be a part): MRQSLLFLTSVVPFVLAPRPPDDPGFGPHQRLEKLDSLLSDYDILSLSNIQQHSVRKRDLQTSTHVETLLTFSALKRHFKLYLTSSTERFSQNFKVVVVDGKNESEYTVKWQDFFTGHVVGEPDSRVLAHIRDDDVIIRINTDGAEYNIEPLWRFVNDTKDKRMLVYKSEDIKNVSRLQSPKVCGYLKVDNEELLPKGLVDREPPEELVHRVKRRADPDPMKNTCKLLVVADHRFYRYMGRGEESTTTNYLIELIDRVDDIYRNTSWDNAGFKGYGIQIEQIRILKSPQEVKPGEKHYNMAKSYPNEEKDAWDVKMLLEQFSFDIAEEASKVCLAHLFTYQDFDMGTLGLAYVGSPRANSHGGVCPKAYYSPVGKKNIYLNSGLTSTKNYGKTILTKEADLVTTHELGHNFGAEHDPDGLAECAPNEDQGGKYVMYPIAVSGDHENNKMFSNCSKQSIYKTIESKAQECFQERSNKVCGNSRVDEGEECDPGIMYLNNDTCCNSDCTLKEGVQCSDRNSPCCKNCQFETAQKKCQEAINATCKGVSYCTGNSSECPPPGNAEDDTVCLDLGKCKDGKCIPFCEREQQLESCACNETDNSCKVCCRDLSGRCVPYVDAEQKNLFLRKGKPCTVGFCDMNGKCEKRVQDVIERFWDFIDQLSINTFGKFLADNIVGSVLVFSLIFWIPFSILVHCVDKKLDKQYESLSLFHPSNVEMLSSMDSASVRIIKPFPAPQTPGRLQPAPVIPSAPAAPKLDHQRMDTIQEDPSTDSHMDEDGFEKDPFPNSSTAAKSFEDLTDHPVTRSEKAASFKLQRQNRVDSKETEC
smiles,measurement,setting,value
CN1/C(=C\C(=O)Nc2ccc(F)cc2)C(C)(C)c2ccccc21,IC50,[1],> 122 µM (inactive)
Cc1occc1C(=O)Nc1ccc2c(c1)OCCO2,AC50,[2],> 52 µM (inactive)
C/C=C/C=C\C(=O)Nc1cccc(C2=NOC3(C2)C[C@H](C(N)=O)N(C(=O)CC#N)C3)c1 (stereo partly specified),IC50,[3],> 66.6 µM (inactive)
same,IC50,[4],3.34 µM (active)
c1ccc2c(c1)nnn2-c1ncnc2sccc12,EC50,[5],> 91.2 µM (inactive)
same,CC50,[6],46.8 µM (active)
same,EC50,[7],> 91.2 µM (inactive)
CC1(C)Cc2c(sc(NC(=O)COc3cccc4ccccc34)c2C#N)C(C)(C)N1,IC50,[8],> 80 µM (inactive)
same,IC50,[9],8.84 µM (active)
same,EC50,[5],> 10.1 µM (inactive)
same,IC50,[10],8.33 µM (active)
same,EC50,[7],> 91.2 µM (inactive)
Cc1ccc(NC(=O)NNC(=O)Cn2nc(-c3ccccc3)c(-c3ccccc3)c(C#N)c2=O)cc1,IC50,Fatty acid synthase,4.64 µM (active)
same,IC50,[11],> 69.5 µM (inactive)
same,IC50,[12],> 69.5 µM (inactive)
O=C(CCCNC(=O)c1ccc(Cl)cc1)Nc1ccc(Br)cc1,IC50,[13],119 µM (inactive)
same,IC50,[14],83.4 µM (inactive)
same,IC50,[15],7.11 µM (active)
Oc1cc(NCc2cccnc2)ccc1-c1nc2ccccc2o1,CC50,[16],> 40 µM (active)
same,AC50,[2],26 µM (active)
same,IC50,cells,14.1 µM (active)
COc1ccc(NC(=O)CSc2nc(O)c3c(C(F)(F)F)cc(-c4cccs4)nc3n2)c(OC)c1,IC50,[17],4.89 µM (active)
same,IC50,[18],32.1 µM (active)
same,IC50,Aminopeptidase N,56.5 µM (active)
same,EC50,[19],11.6 µM (active)
same,EC50,Streptococcus,124 µM (active)
O=C(NNC(=O)c1ccc(-n2cncn2)c([N+](=O)[O-])c1)c1ccccc1,IC50,[13],32.3 µM (inactive)
same,IC50,[14],83.3 µM (inactive)
same,IC50,[15],11.9 µM (inactive)
COc1cc(NC(=O)COc2ccc([N+](=O)[O-])cc2)ccc1NC(=O)c1ccco1,IC50,[20],33.6 µM (inactive)
NC[C@H](O)c1ccc(O)c(O)c1 [NOREPINEPHRINE BITARTRATE],EC50,[21],0.806 µM (active)
